Reference: PubChem BioAssay (NCI)
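GI50 is the concentration that inhibits growth by half. TGI is the concentration that stops growth completely.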

Experiments:
Test in all cases: inhibition of tumour cell growth, NCI panel, 384-well format
OVCAR-5 ovarian = system: OVCAR-5 ovarian
MDA-MB-468 breast = system: MDA-MB-468 breast
SK-MEL-2 melanoma = system: SK-MEL-2 melanoma
SR leukemia = system: SR leukemia
CAKI-1 renal = system: CAKI-1 renal
UO-31 renal = system: UO-31 renal
NCI-H460 NSCLC = system: NCI-H460 NSCLC
DU-145 prostate = system: DU-145 prostate
MDA-MB-435 melanoma = system: MDA-MB-435 melanoma
MOLT-4 leukemia = system: MOLT-4 leukemia
COLO 205 colon = system: COLO 205 colon
MALME-3M melanoma = system: MALME-3M melanoma
HS 578T breast = system: HS 578T breast
RXF 393 renal = system: RXF 393 renal
SK-OV-3 ovarian = system: SK-OV-3 ovarian
T-47D breast = system: T-47D breast
SF-268 CNS = system: SF-268 CNS
OVCAR-3 ovarian = system: OVCAR-3 ovarian
PC-3 prostate = system: PC-3 prostate
IGROV1 ovarian = system: IGROV1 ovarian
HCT-15 colon = system: HCT-15 colon
HOP-62 NSCLC = system: HOP-62 NSCLC
BT-549 breast = system: BT-549 breast
SF-539 CNS = system: SF-539 CNS
M14 melanoma = system: M14 melanoma
HOP-92 NSCLC = system: HOP-92 NSCLC
NCI-H322M lung = system: NCI-H322M lung
NCI-H522 lung = system: NCI-H522 lung
MCF7 breast = system: MCF7 breast
TK-10 renal = system: TK-10 renal
K-562 leukemia = system: K-562 leukemia
OVCAR-8 ovarian = system: OVCAR-8 ovarian
U251 glioblastoma = system: U251 glioblastoma
SNB-19 CNS = system: SNB-19 CNS
786-0 renal = system: 786-0 renal
ACHN renal = system: ACHN renal
SNB-75 CNS = system: SNB-75 CNS
HT29 colon = system: HT29 colon
OVCAR-4 ovarian = system: OVCAR-4 ovarian
A498 renal = system: A498 renal
A549 NSCLC = system: A549 NSCLC
NCI-H23 lung = system: NCI-H23 lung
SN12C renal = system: SN12C renal
NCI-H226 lung = system: NCI-H226 lung
SW-620 colon = system: SW-620 colon
EKVX NSCLC = system: EKVX NSCLC
MDA-MB-231 breast = system: MDA-MB-231 breast
SF-295 CNS = system: SF-295 CNS
HL-60(TB) leukemia = system: HL-60(TB) leukemia
KM12 colon = system: KM12 colon
SK-MEL-5 melanoma = system: SK-MEL-5 melanoma
SK-MEL-28 melanoma = system: SK-MEL-28 melanoma
UACC-62 melanoma = system: UACC-62 melanoma
UACC-257 melanoma = system: UACC-257 melanoma
HCT-116 colon = system: HCT-116 colon

Question: How did the GI50 (OVCAR-5 ovarian) turn out when `CC(C)N(C[C@H]1O[C@@H](n2cnc3c(N)ncnc32)[C@H](O)[C@@H]1O)C1CC(CCc2nc3ccc(C(C)(C)C)cc3[nH]2)C1` (stereo not given in full) was run?
Answer: > 100 µM

Question: And the TGI (OVCAR-5 ovarian)?
Answer: > 100 µM

Question: And the GI50 (MDA-MB-468 breast)?
Answer: 24.8 µM

Question: What about the TGI (MDA-MB-468 breast) of the same compound?
Answer: 50.1 µM

Question: And the GI50 (SK-MEL-2 melanoma)?
Answer: 15.8 µM

Question: And the TGI (SK-MEL-2 melanoma)?
Answer: 29.3 µM

Question: And the GI50 (SR leukemia)?
Answer: 17.9 µM

Question: What about the TGI (SR leukemia) of the same compound?
Answer: 31.8 µM

Question: And the GI50 (CAKI-1 renal)?
Answer: > 100 µM

Question: What about the TGI (CAKI-1 renal) of the same compound?
Answer: > 100 µM

Question: And the GI50 (UO-31 renal)?
Answer: > 100 µM

Question: And the TGI (UO-31 renal)?
Answer: > 100 µM

Question: And the GI50 (NCI-H460 NSCLC)?
Answer: 20.3 µM

Question: And the TGI (NCI-H460 NSCLC)?
Answer: 43 µM

Question: And the GI50 (DU-145 prostate)?
Answer: > 100 µM

Question: What about the TGI (DU-145 prostate) of the same compound?
Answer: > 100 µM

Question: What about the GI50 (MDA-MB-435 melanoma) of the same compound?
Answer: 17.9 µM

Question: And the TGI (MDA-MB-435 melanoma)?
Answer: 31.8 µM

Question: What about the GI50 (MOLT-4 leukemia) of the same compound?
Answer: 18.8 µM

Question: What about the TGI (MOLT-4 leukemia) of the same compound?
Answer: 32.8 µM

Question: What about the GI50 (COLO 205 colon) of the same compound?
Answer: 25.6 µM

Question: What about the TGI (COLO 205 colon) of the same compound?
Answer: 58.6 µM

Question: And the GI50 (MALME-3M melanoma)?
Answer: 18 µM

Question: What about the TGI (MALME-3M melanoma) of the same compound?
Answer: 32 µM

Question: What about the GI50 (HS 578T breast) of the same compound?
Answer: 20.5 µM

Question: And the TGI (HS 578T breast)?
Answer: 37 µM

Question: What about the GI50 (RXF 393 renal) of the same compound?
Answer: 25.3 µM

Question: What about the TGI (RXF 393 renal) of the same compound?
Answer: 79 µM

Question: And the GI50 (SK-OV-3 ovarian)?
Answer: > 100 µM

Question: What about the TGI (SK-OV-3 ovarian) of the same compound?
Answer: > 100 µM

Question: What about the GI50 (T-47D breast) of the same compound?
Answer: 39 µM

Question: What about the TGI (T-47D breast) of the same compound?
Answer: > 100 µM

Question: And the GI50 (SF-268 CNS)?
Answer: 22.9 µM

Question: And the TGI (SF-268 CNS)?
Answer: 47.9 µM

Question: And the GI50 (OVCAR-3 ovarian)?
Answer: 49.6 µM

Question: What about the TGI (OVCAR-3 ovarian) of the same compound?
Answer: > 100 µM

Question: What about the GI50 (PC-3 prostate) of the same compound?
Answer: 47 µM

Question: And the TGI (PC-3 prostate)?
Answer: > 100 µM

Question: What about the GI50 (IGROV1 ovarian) of the same compound?
Answer: 51 µM

Question: And the TGI (IGROV1 ovarian)?
Answer: > 100 µM

Question: And the GI50 (HCT-15 colon)?
Answer: > 100 µM

Question: What about the TGI (HCT-15 colon) of the same compound?
Answer: > 100 µM

Question: And the GI50 (HOP-62 NSCLC)?
Answer: > 100 µM

Question: What about the TGI (HOP-62 NSCLC) of the same compound?
Answer: > 100 µM

Question: And the GI50 (BT-549 breast)?
Answer: 18 µM

Question: What about the TGI (BT-549 breast) of the same compound?
Answer: 32.5 µM

Question: And the GI50 (SF-539 CNS)?
Answer: 43.9 µM

Question: And the TGI (SF-539 CNS)?
Answer: > 100 µM

Question: What about the GI50 (M14 melanoma) of the same compound?
Answer: 20 µM

Question: And the TGI (M14 melanoma)?
Answer: 37.1 µM

Question: What about the GI50 (HOP-92 NSCLC) of the same compound?
Answer: 19.2 µM

Question: And the TGI (HOP-92 NSCLC)?
Answer: 40.9 µM

Question: What about the GI50 (NCI-H322M lung) of the same compound?
Answer: > 100 µM

Question: What about the TGI (NCI-H322M lung) of the same compound?
Answer: > 100 µM

Question: What about the GI50 (NCI-H522 lung) of the same compound?
Answer: 20.1 µM

Question: What about the TGI (NCI-H522 lung) of the same compound?
Answer: 35.3 µM

Question: And the GI50 (MCF7 breast)?
Answer: 20 µM

Question: What about the TGI (MCF7 breast) of the same compound?
Answer: 45.2 µM

Question: What about the GI50 (TK-10 renal) of the same compound?
Answer: 83.9 µM

Question: And the TGI (TK-10 renal)?
Answer: > 100 µM

Question: And the GI50 (K-562 leukemia)?
Answer: 31 µM

Question: And the TGI (K-562 leukemia)?
Answer: > 100 µM

Question: And the GI50 (OVCAR-8 ovarian)?
Answer: > 100 µM

Question: What about the TGI (OVCAR-8 ovarian) of the same compound?
Answer: > 100 µM

Question: What about the GI50 (U251 glioblastoma) of the same compound?
Answer: 41.7 µM

Question: And the TGI (U251 glioblastoma)?
Answer: > 100 µM

Question: What about the GI50 (SNB-19 CNS) of the same compound?
Answer: > 100 µM

Question: What about the TGI (SNB-19 CNS) of the same compound?
Answer: > 100 µM

Question: What about the GI50 ([…]-0 renal) of the same compound?
Answer: > 100 µM

Question: And the TGI (786-0 renal)?
Answer: > 100 µM

Question: What about the GI50 (ACHN renal) of the same compound?
Answer: > 100 µM

Question: What about the TGI (ACHN renal) of the same compound?
Answer: > 100 µM

Question: What about the GI50 (SNB-75 CNS) of the same compound?
Answer: 22.5 µM

Question: What about the TGI (SNB-75 CNS) of the same compound?
Answer: 44.9 µM

Question: And the GI50 (HT29 colon)?
Answer: 19.1 µM

Question: And the TGI (HT29 colon)?
Answer: 35.3 µM

Question: And the GI50 (OVCAR-4 ovarian)?
Answer: 79.9 µM

Question: And the TGI (OVCAR-4 ovarian)?
Answer: > 100 µM

Question: And the GI50 (A498 renal)?
Answer: > 100 µM

Question: What about the TGI (A498 renal) of the same compound?
Answer: > 100 µM

Question: And the GI50 (A549 NSCLC)?
Answer: > 100 µM

Question: What about the TGI (A549 NSCLC) of the same compound?
Answer: > 100 µM

Question: And the GI50 (NCI-H23 lung)?
Answer: 46.6 µM

Question: What about the TGI (NCI-H23 lung) of the same compound?
Answer: > 100 µM

Question: What about the GI50 (SN12C renal) of the same compound?
Answer: > 100 µM

Question: What about the TGI (SN12C renal) of the same compound?
Answer: > 100 µM

Question: What about the GI50 (NCI-H226 lung) of the same compound?
Answer: > 100 µM

Question: What about the TGI (NCI-H226 lung) of the same compound?
Answer: > 100 µM

Question: And the GI50 (SW-620 colon)?
Answer: 52.3 µM

Question: And the TGI (SW-620 colon)?
Answer: > 100 µM

Question: What about the GI50 (EKVX NSCLC) of the same compound?
Answer: 88.1 µM

Question: What about the TGI (EKVX NSCLC) of the same compound?
Answer: > 100 µM

Question: What about the GI50 (MDA-MB-231 breast) of the same compound?
Answer: 35.4 µM

Question: What about the TGI (MDA-MB-231 breast) of the same compound?
Answer: > 100 µM

Question: What about the GI50 (SF-295 CNS) of the same compound?
Answer: > 100 µM

Question: What about the TGI (SF-295 CNS) of the same compound?
Answer: > 100 µM

Question: What about the GI50 (HL-60(TB) leukemia) of the same compound?
Answer: 13.3 µM

Question: And the TGI (HL-60(TB) leukemia)?
Answer: 26 µM

Question: What about the GI50 (KM12 colon) of the same compound?
Answer: 39 µM

Question: What about the TGI (KM12 colon) of the same compound?
Answer: > 100 µM

Question: What about the GI50 (SK-MEL-5 melanoma) of the same compound?
Answer: 23.9 µM

Question: What about the TGI (SK-MEL-5 melanoma) of the same compound?
Answer: 69.4 µM

Question: What about the GI50 (SK-MEL-28 melanoma) of the same compound?
Answer: 18 µM

Question: And the TGI (SK-MEL-28 melanoma)?
Answer: 31.9 µM

Question: And the GI50 (UACC-62 melanoma)?
Answer: 16.9 µM

Question: What about the TGI (UACC-62 melanoma) of the same compound?
Answer: 30.7 µM

Question: What about the GI50 (UACC-257 melanoma) of the same compound?
Answer: 18.5 µM

Question: What about the TGI (UACC-257 melanoma) of the same compound?
Answer: 33.4 µM

Question: What about the GI50 (HCT-116 colon) of the same compound?
Answer: 41.9 µM

Question: And the TGI (HCT-116 colon)?
Answer: > 100 µM
